# Measurements from patent publication US20070117743A1, “New antitumoral compounds” (priority 2003, published 2007).
# Where two headings read alike, the source gives them in different places. Where a SMILES comes first, the peptide text is derived from it. Bridges are numbered along the chain shown (N, C = ends). [ ]: non-standard residue; d: D form. The star is where a group is joined. d(aIle) = CC[C@H](C)[C@@H](N)C(=O)O; d(aThr) = C[C@@H](O)[C@@H](N)C(=O)O; Hexanoyl(5-Me) = CC(C)CCCC(=O)*; Orn = NCCC[C@H](N)C(=O)O; Dhb = C/C=C(\N)C(=O)O
# Tests used:
# Format in all cases: cell-based, human
# LoVo-Dox = assay: SRB colorimetric assay of cell growth and viability, LoVo-Dox; conditions: 48 hours exposure; for CC50: read-out: LC50 LOVO-DOX
# Outline: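 Optical density at 490 nm of solubilized SRB, from triplicate wells, yields GI, TGI and LC values. Before staining, cells are fixed for 60 minutes at 4° C in cold TCA after a 48-hour exposure.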
# IGROV-1 = assay: SRB colorimetric assay of cell growth and viability, IGROV-1; conditions: 48 hours exposure
# HeLa = assay: SRB colorimetric assay of cell growth and viability, HeLa; conditions: 48 hours exposure; for CC50: read-out: LC50 HELA
# HeLa-APL = assay: SRB colorimetric assay of cell growth and viability, HeLa-APL; conditions: 48 hours exposure; for CC50: read-out: LC50 HELA-APL
# SK-MEL-28 = assay: SRB colorimetric assay of cell growth and viability, SK-MEL-28; conditions: 48 hours exposure; for CC50: read-out: LC50 MEL-28
# A-549 = assay: SRB colorimetric assay of cell growth and viability, A-549; conditions: 48 hours exposure; for GI50: read-out: GI50 A-549; for CC50: read-out: LC50 A-549
# DU-145 = assay: SRB colorimetric assay of cell growth and viability, DU-145; conditions: 48 hours exposure
# LoVo = assay: SRB colorimetric assay of cell growth and viability, LoVo; conditions: 48 hours exposure; for CC50: read-out: LC50 LOVO
# SK-BR-3 = assay: SRB colorimetric assay of cell growth and viability, SK-BR-3; conditions: 48 hours exposure
# HT-29 = assay: SRB colorimetric assay of cell growth and viability, HT-29; conditions: 48 hours exposure; for GI50: read-out: GI50 HT-29; for CC50: read-out: LC50 HT-29
# IGROV-ET = assay: SRB colorimetric assay of cell growth and viability, IGROV-ET; conditions: 48 hours exposure; for CC50: read-out: LC50 IGROV-ET
# PANC-1 = assay: SRB colorimetric assay of cell growth and viability, PANC-1; conditions: 48 hours exposure; for CC50: read-out: LC50 PANC-1
# LNCaP = assay: SRB colorimetric assay of cell growth and viability, LNCaP; conditions: 48 hours exposure; for GI50: read-out: GI50 LN-caP; for CC50: read-out: LC50 LN-caP
# K-562 = assay: SRB colorimetric assay of cell growth and viability, K-562; conditions: 48 hours exposure; for CC50: read-out: LC50 K-562
compound,measurement,setting,value
[(4RS)-MeHex^14]-KF [Compound 17],GI50,LoVo-Dox,0.18 µM
same,TGI LOVO-DOX,LoVo-Dox,3.66E−07 Molar
same,CC50,LoVo-Dox,1.27 µM
same,GI50,IGROV-1,0.185 µM
same,LC50 (concentration causing 50% net cell killing),IGROV-1,1.49 µM
same,TGI IGROV,IGROV-1,3.96E−07 Molar
same,GI50,HeLa,0.744 µM
same,TGI HELA,HeLa,1.71E−06 Molar
same,CC50,HeLa,3.92 µM
same,GI50,HeLa-APL,0.758 µM
same,TGI HELA-APL,HeLa-APL,1.86E−06 Molar
same,CC50,HeLa-APL,4.59 µM
same,GI50,SK-MEL-28,1.3 µM
same,TGI MEL-28,SK-MEL-28,2.54E−06 Molar
same,CC50,SK-MEL-28,4.96 µM
same,TGI A-549,A-549,7.51E−07 Molar
same,GI50,A-549,0.24 µM
same,CC50,A-549,2.89 µM
same,GI50,DU-145,0.252 µM
same,LC50 (concentration causing 50% net cell kill),DU-145,2.65 µM
same,TGI DU-145,DU-145,8.39E−07 Molar
same,GI50,LoVo,0.141 µM
same,TGI LOVO,LoVo,2.67E−07 Molar
same,CC50,LoVo,0.503 µM
same,GI50,SK-BR-3,0.162 µM
same,LC50,SK-BR-3,0.606 µM
same,TGI SK-BR-3,SK-BR-3,3.14E−07 Molar
same,TGI HT-29,HT-29,2.84E−07 Molar
same,GI50,HT-29,0.147 µM
same,CC50,HT-29,0.55 µM
same,GI50,IGROV-ET,0.209 µM
same,TGI IGROV-ET,IGROV-ET,4.24E−07 Molar
same,CC50,IGROV-ET,1.84 µM
same,GI50,PANC-1,3.82 µM
same,TGI PANC-1,PANC-1,6.77E−06 Molar
same,CC50,PANC-1,≥ 6.77 µM
same,TGI LN-caP,LNCaP,2.10E−06 Molar
same,GI50,LNCaP,0.934 µM
same,CC50,LNCaP,4.75 µM
same,GI50,K-562,2.37 µM
same,TGI K-562,K-562,4.07E−06 Molar
same,CC50,K-562,≥ 6.77 µM
"C/C=C1\NC(=O)[C@H](Cc2c[nH]c3ccccc23)NC(=O)[C@@H](C(C)C)NC(=O)[C@@H]([C@@H](C)CC)NC(=O)[C@H](NC(=O)[C@H](NC(=O)[C@H](CCCN)NC(=O)[C@H]2CCCN2C(=O)[C@H](NC(=O)[C@@H](NC(=O)[C@@H](NC(=O)[C@H](NC(=O)CCCC(C)C)C(C)C)[C@@H](C)O)C(C)C)C(C)C)[C@@H](C)CC)[C@@H](C)OC(=O)[C@H](C(C)C)NC1=O [Compound 68, [Trp^3]-KF] ({Hexanoyl(5-Me)}-[dV]TV[dV][dP][Orn][d(aIle)][d(aThr)][d(aIle)][dV]W[Dhb]V; ester 8-C)",GI50,LoVo-Dox; SRB,0.281 µM
same,TGI LOVO-DOX,LoVo-Dox; SRB,6.47E−07 Molar
same,CC50,LoVo-Dox; SRB,2.53 µM
same,GI50,IGROV-1; SRB,0.087 µM
same,LC50 (concentration causing 50% net cell killing),IGROV-1; SRB,0.453 µM
same,TGI IGROV,IGROV-1; SRB,1.98E−07 Molar
same,GI50,HeLa; SRB,1.03 µM
same,TGI HELA,HeLa; SRB,2.05E−06 Molar
same,CC50,HeLa; SRB,4.04 µM
same,GI50,HeLa-APL; SRB,0.943 µM
same,TGI HELA-APL,HeLa-APL; SRB,1.90E−06 Molar
same,CC50,HeLa-APL; SRB,3.82 µM
same,GI50,SK-MEL-28; SRB,1.25 µM
same,TGI MEL-28,SK-MEL-28; SRB,2.17E−06 Molar
same,CC50,SK-MEL-28; SRB,3.77 µM
same,TGI A-549,A-549; SRB,2.83E−06 Molar
same,GI50,A-549; SRB,1.56 µM
same,CC50,A-549; SRB,5.12 µM
same,GI50,DU-145; SRB,0.47 µM
same,LC50 (concentration causing 50% net cell kill),DU-145; SRB,2.85 µM
same,TGI DU-145,DU-145; SRB,1.21E−06 Molar
same,GI50,LoVo; SRB,0.337 µM
same,TGI LOVO,LoVo; SRB,9.49E−07 Molar
same,CC50,LoVo; SRB,2.62 µM
same,GI50,SK-BR-3; SRB,0.15 µM
same,LC50,SK-BR-3; SRB,0.655 µM
same,TGI SK-BR-3,SK-BR-3; SRB,3.13E−07 Molar
same,TGI HT-29,HT-29; SRB,1.40E−06 Molar
same,GI50,HT-29; SRB,0.512 µM
same,CC50,HT-29; SRB,3.66 µM
same,GI50,IGROV-ET; SRB,0.15 µM
same,TGI IGROV-ET,IGROV-ET; SRB,2.73E−07 Molar
same,CC50,IGROV-ET; SRB,0.499 µM
same,GI50,PANC-1; SRB,6.59 µM
same,TGI PANC-1,PANC-1; SRB,6.59E−06 Molar
same,CC50,PANC-1; SRB,6.59 µM
same,TGI LN-caP,LNCaP; SRB,2.36E−06 Molar
same,GI50,LNCaP; SRB,1.05 µM
same,CC50,LNCaP; SRB,5.29 µM
same,GI50,K-562; SRB,3.7 µM
same,TGI K-562,K-562; SRB,6.59E−06 Molar
same,CC50,K-562; SRB,6.59 µM
"C/C=C1\NC(=O)[C@H](Cc2ccccc2)NC(=O)[C@@H](C(C)C)NC(=O)[C@@H]([C@@H](C)CC)NC(=O)[C@H](NC(=O)[C@H](NC(=O)[C@H](CCCN)NC(=O)[C@H]2CCCN2C(=O)[C@H](NC(=O)[C@@H](NC(=O)[C@@H](NC(=O)[C@H](NC(=O)CCCC(C)C)C(C)C)[C@@H](C)O)[C@@H](C)O)C(C)C)[C@@H](C)CC)[C@@H](C)OC(=O)[C@H](C(C)C)NC1=O [Compound 50, [Thr^11]-KF] ({Hexanoyl(5-Me)}-[dV]TT[dV][dP][Orn][d(aIle)][d(aThr)][d(aIle)][dV]F[Dhb]V; ester 8-C)",GI50,LoVo-Dox,1.27 µM
same,TGI LOVO-DOX,LoVo-Dox,2.54E−06 Molar
same,CC50,LoVo-Dox,5.1 µM
same,GI50,IGROV-1,3.76 µM
same,LC50 (concentration causing 50% net cell killing),IGROV-1,≥ 6.76 µM
same,TGI IGROV,IGROV-1,6.76E−06 Molar
same,GI50,HeLa,5.58 µM
same,TGI HELA,HeLa,6.76E−06 Molar
same,CC50,HeLa,≥ 6.76 µM
same,GI50,HeLa-APL,≥ 6.76 µM
same,TGI HELA-APL,HeLa-APL,6.76E−06 Molar
same,CC50,HeLa-APL,≥ 6.76 µM
same,GI50,SK-MEL-28,≥ 6.76 µM
same,TGI MEL-28,SK-MEL-28,6.76E−06 Molar
same,CC50,SK-MEL-28,≥ 6.76 µM
same,TGI A-549,A-549,6.76E−06 Molar
same,GI50,A-549,≥ 6.76 µM
same,CC50,A-549,≥ 6.76 µM
same,GI50,DU-145,≥ 6.7 µM
same,LC50 (concentration causing 50% net cell kill),DU-145,≥ 6.76 µM
same,TGI DU-145,DU-145,6.76E−06 Molar
same,GI50,LoVo,1.21 µM
same,TGI LOVO,LoVo,2.80E−06 Molar
same,CC50,LoVo,6.47 µM
same,GI50,SK-BR-3,0.899 µM
same,LC50,SK-BR-3,≥ 6.76 µM
same,TGI SK-BR-3,SK-BR-3,2.58E−06 Molar
same,TGI HT-29,HT-29,6.76E−06 Molar
same,GI50,HT-29,3.76 µM
same,CC50,HT-29,≥ 6.76 µM
same,GI50,IGROV-ET,2.7 µM
same,TGI IGROV-ET,IGROV-ET,6.76E−06 Molar
same,CC50,IGROV-ET,≥ 6.76 µM
same,GI50,PANC-1,4.16 µM
same,TGI PANC-1,PANC-1,6.76E−06 Molar
same,CC50,PANC-1,≥ 6.76 µM
same,TGI LN-caP,LNCaP,6.76E−06 Molar
same,GI50,LNCaP,≥ 6.76 µM
same,CC50,LNCaP,≥ 6.76 µM
same,GI50,K-562,≥ 6.76 µM
same,TGI K-562,K-562,6.76E−06 Molar
same,CC50,K-562,≥ 6.76 µM
"C/C=C1\NC(=O)[C@H](Cc2ccccc2)NC(=O)[C@@H](C(C)C)NC(=O)[C@@H]([C@@H](C)CC)NC(=O)[C@H](NC(=O)[C@H](NC(=O)[C@H](CCCN)NC(=O)[C@H]2CCCN2C(=O)[C@H](NC(=O)[C@@H](NC(=O)[C@H](NC(=O)[C@H](NC(=O)CCCC(C)C)C(C)C)[C@H](C)O)C(C)C)C(C)C)[C@@H](C)CC)[C@@H](C)OC(=O)[C@H](C(C)C)NC1=O [Compound 7, [D-Thr^12]-KF]",GI50,LoVo-Dox,5.14 µM
same,TGI LOVO-DOX,LoVo-Dox,6.77E−06 Molar
same,CC50,LoVo-Dox,≥ 6.77 µM
same,GI50,IGROV-1,≥ 6.77 µM
same,LC50 (concentration causing 50% net cell killing),IGROV-1,≥ 6.77 µM
same,TGI IGROV,IGROV-1,6.77E−06 Molar
same,GI50,HeLa,≥ 6.77 µM
same,TGI HELA,HeLa,6.77E−06 Molar
same,CC50,HeLa,≥ 6.77 µM
same,GI50,HeLa-APL,≥ 6.77 µM
same,TGI HELA-APL,HeLa-APL,6.77E−06 Molar
same,CC50,HeLa-APL,≥ 6.77 µM
same,GI50,SK-MEL-28,≥ 6.77 µM
same,TGI MEL-28,SK-MEL-28,6.77E−06 Molar
same,CC50,SK-MEL-28,≥ 6.77 µM
same,TGI A-549,A-549,6.77E−06 Molar
same,GI50,A-549,≥ 6.77 µM
same,CC50,A-549,≥ 6.77 µM
same,GI50,DU-145,≥ 6.77 µM
same,LC50 (concentration causing 50% net cell kill),DU-145,≥ 6.77 µM
same,TGI DU-145,DU-145,6.77E−06 Molar
same,GI50,LoVo,≥ 6.77 µM
same,TGI LOVO,LoVo,6.77E−06 Molar
same,CC50,LoVo,≥ 6.77 µM
same,GI50,SK-BR-3,≥ 6.77 µM
same,LC50,SK-BR-3,≥ 6.77 µM
same,TGI SK-BR-3,SK-BR-3,6.77E−06 Molar
same,TGI HT-29,HT-29,6.77E−06 Molar
same,GI50,HT-29,≥ 6.77 µM
same,CC50,HT-29,≥ 6.77 µM
same,GI50,IGROV-ET,≥ 6.77 µM
same,TGI IGROV-ET,IGROV-ET,6.77E−06 Molar
same,CC50,IGROV-ET,≥ 6.77 µM
same,GI50,PANC-1,≥ 6.77 µM
same,TGI PANC-1,PANC-1,6.77E−06 Molar
same,CC50,PANC-1,≥ 6.77 µM
same,TGI LN-caP,LNCaP,6.77E−06 Molar
same,GI50,LNCaP,6.04 µM
same,CC50,LNCaP,≥ 6.77 µM
same,GI50,K-562,≥ 6.77 µM
same,TGI K-562,K-562,6.77E−06 Molar
same,CC50,K-562,≥ 6.77 µM
